The test concerns Citrullinated Histone H3 in 4T1 (TNBC cell line) cells. Kind of test: 4T1 CECN ELISA assay. The class given is cell-based. As to conditions: 4T1 cells, stimulation with 50 μM A23187 for 4 h, read-out: Average IC50 Abs. The procedure:
Cell culture: 4T1 cells were grown in DMEM+10% FBS+1% HEPES+1% PS. Cells plating: • 1) 4T1 cells were collected and the plate was centrifuged at 1000 rpm for 5 min. • 2) The 4T1 cells were diluted to 0.5×10^6 cells/mL and plated into a 96-well plate with 100 μL/well. The plate was then incubated in the incubator (5% CO2, 37° C.) for overnight to allow cells to adhere, exchanged fresh culture medium with 100 μL/well. Compound treatment: • 1) Preparation of compound serial dilution (source plate 500×, final DMSO concentration: 0.2%): briefly, compounds were dissolved in 100% DMSO to a concentration of 20 mM (the stock solution) and a 3-fold serial dilution with 8-point doses was performed. • 2) 10× compound solution was pipetted up and down; and 10 μL/well of compounds were added into each well and incubated for 30 min. Stimulation with 50 μM A23187: • 1) A solution of A23187 (500 μM) in complete DMDM (DMDM+10% FBS+1% PS+1 mM CaCl2) containing 150 U/mL S7 Nuclease was prepared. The obtained solution was added 10 μL/well into each well and incubated for 4 h in the incubator (5% CO2, 37° C.). • 2) The 4T1 cells treated with 10 μL/well complete DMDM without A23187 worked as negative control. Sample preparation: • 1) EDTA (0.5 M, 2 μL/well) were added to all the wells to stop the reaction. • 2) The plate was centrifuged at 1000 rpm for 5 min to collect supernatant. • 3) The supernatant was then diluted at least 1:2 before adding to the ELISA plate for citrullinated H3 analysis.
The standard was reconstituted with 2 mL of Assay buffer to 500 ng/mL. The reconstituted standard was relatively unstable at 4° C. and should be used within 3 hr after reconstitution.
• 1) 100 μL of the standards or diluted samples were added to the wells on the ELISA plate. • 2) The plate was covered with Cover Sheet and incubated for 2 h at RT on an orbital shaker.
On the day of the assay, the reagent was thawed at rt. For one plate, 1.2 mL of HRP Conjugate were diluted into 10.8 mL of assay buffer. A diluted HRP Conjugate was prepared shortly before use.
• 1) The wells were empties and rinsed four times with 1× wash buffer with 300 μL/well (Low speed). The plate was inverted between wash steps to empty the plate. After the last wash, the inverted plate was gently tapped on absorbent paper to remove the residual wash buffer. • 2) 100 μL of the HRP Conjugate working solution were added to each well of the plate. • 3) The plate was covered with cover sheet and incubated for 1 h at RT on an orbital shaker.
• 1) The wells were empties and rinsed four times with 1× wash buffer with 300 μL/well (low speed). The plate was inverted between wash steps to empty the plate. […] 100 μL of HRP STOP solution were added to each well of the plate.
• 1) Wipe the bottom of the plate with a clean tissue to remove fingerprints, dirt, etc. • 2) Read the plate at a wavelength of 450 nm.
The percent (%) inhibition at each concentration of compound was calculated based on and relative to the signal in the HPE and ZPE wells contained within each assay plate. The HPE wells worked as […], and the ZPE wells didn't contain any compound but rather DMSO (final concentration=[…]) as […]. The concentrations and % inhibition values for tested compounds were plotted and the concentration of compound required for 50% inhibition (IC50) was determined with a Four-parameter logistic dose response equation. The endpoint value (IC50) for the reference peptide/compound was evaluated in each experiment as a quality control measure. If the endpoint value is within 3-fold of the expected value then the experiment is deemed acceptable. The results of representative compounds of the present invention are provided in Table 3 below. ≤0.1 μM=“++++”; >0.1 and ≤0.5 μM=“+++”; >0.5 and ≤5.0 μM=“++”; >5.0 μM=“+”. “−”=not available.
(In general: In an ELISA, binding on a coated surface is turned into a signal by an enzyme label.)

The structures appear in SMILES notation. Where two headings read alike, the source gives them in different places.

One may read the IC50 as the concentration that gives 50% inhibition.

For `CCC1CN(CCCO)c2cccc3cc(-c4nc5cc(C(=O)N6C[C@H]7CC[C@@H]6[C@@H]7N)cc(OC)c5n4C)n1c23` (single isomer, unassigned) [Example 87], the IC50 was at most 100 nM.

As for `CCC1CN(CCCO)c2cccc3cc(-c4nc5cc(C(=O)N6C[C@H]7CC[C@@H]6[C@@H]7N)cc(OC)c5n4C)n1c23` (single isomer, unassigned) [Example 86], the IC50 was above 5000 nM.

For `CCC1CN(CCCO)c2cccc3cc(-c4nc5cc(C(=O)N6C[C@H](N)C[C@@H](F)C6)cc(F)c5n4C)n1c23` (stereo partly drawn) [Example 75, ((3R,5R)-3-amino-5-fluoropiperidin-1-yl)(2-(3-ethyl-1-(3-hydroxypropyl)-2,3-dihydro-1H-pyrrolo[1,2,3-de]quinoxalin-5-yl)-7-fluoro-1-methyl-1H-benzo[d]imidazol-5-yl)methanone], the 50% inhibitory concentration (IC50) (Mus musculus, 4T1, 4 h) lay in the range of 100 to 500 nM.

On to `C#CCn1c(-c2cc3cccc4c3n2C(CC)CN4CCCO)nc2cc(C(=O)N3C[C@H](N)C[C@@H](F)C3)cc(OC)c21` (stereo partly drawn) [Example 95, ((3R,5R)-3-amino-5-fluoropiperidin-1-yl)(2-(3-ethyl-1-(3-hydroxypropyl)-2,3-dihydro-1H-pyrrolo[1,2,3-de]quinoxalin-5-yl)-7-methoxy-1-(prop-2-yn-1-yl)-1H-benzo[d]imidazol-5-yl)methanone], for which, where the note is “Mus musculus, 4T1, 4 h”, the IC50 is at most 100 nM.

With `CCC1CN(CCCO)c2cccc3cc(-c4nc5cc(C(=O)N6C[C@H]7CC[C@@H]6[C@@H]7N)cc(F)c5n4CC)n1c23` (stereo partly drawn) [Example 96, ((1R,4R,7R)-7-amino-2-azabicyclo[2.2.1]heptan-2-yl)(1-ethyl-2-(3-ethyl-1-(3-hydroxypropyl)-2,3-dihydro-1H-pyrrolo[1,2,3-de]quinoxalin-5-yl)-7-fluoro-1H-benzo[d]imidazol-5-yl)methanone], where the note is “Mus musculus”, the concentration for half-maximal inhibition (IC50) is 100 to 500 nM.

In the case of `CCC1CN(CCCO)c2cccc3cc(-c4nc5cc(C(=O)N6C[C@H](N)C[C@@H](F)C6)cc(OC)c5n4C)n1c23` (single isomer, unassigned) [Example 82], the half-inhibitory concentration (IC50) (Mus musculus, 4T1, 4 h) is at most 100 nM.

These data come from US20250136607A1 (REGOR PHARMACEUTICALS, INC., priority 2021, published 2025).
